From patent US12220440B2, “Drug composition, method for treating infection, disinfecting composition, and drug adjuvant” (priority 2022, dated 2025)
Where two headings read alike, the source gives them in different places.

Assays:
Assay type in all cases: cell-based
[1] = system: E. coli (colistin-resistant); assay: MIC, colistin-resistant E. coli clinical isolates, with and without otilonium bromide; conditions: Escherichia coli, Ob alone, read-out: Ob MIC
[2] = system: A. baumannii (colistin-resistant); assay: MIC, colistin-resistant A. baumannii isolates, with and without otilonium bromide; conditions: Acinetobacter baumannii
[3] = system: S. Typhimurium PY01; assay: MIC, colistin-susceptible S. Typhimurium, with and without otilonium bromide; conditions: Salmonella enterica, Ob alone, read-out: Ob MIC
[4] = system: E. coli Bw25113; assay: MIC, colistin-susceptible E. coli, with and without otilonium bromide; conditions: Escherichia coli, Ob alone, read-out: Ob MIC
[5] = system: P. aeruginosa (colistin-susceptible); assay: MIC, colistin-susceptible P. aeruginosa isolates, with and without otilonium bromide; conditions: Pseudomonas aeruginosa, Ob alone, read-out: Ob MIC
[6] = system: mcr-1-bearing E. coli; assay: LIVE/DEAD cell viability assay, fluorescence microscopy; conditions: 20 μg/ml of otilonium bromide alone
Procedure: Fluorescence microscopy quantifies the number of live and dead cells and determines the degree of reduction in colistin concentration in the drug combination required for effective eradication of the test organism. […] However, in the presence of 20 μg/ml of otilonium bromide, 4 μg/ml of colistin eradicates >97% of the bacteria.

[7] = system: mcr-1-bearing E. coli J53; assay: SYTOX Green membrane permeability staining
Source text: SYTOX™ Green (available from ThermoFisher Scientific) staining analysis assesses the membrane permeability of colistin-resistant E. coli before and after treatment with the colistin and otilonium bromide combination. SYTOX Green is a green-fluorescent nucleotide dye used to test membrane permeability and membrane integrity. Green fluorescence is detected by fluorescence spectrometer when bacterial cell integrity is destroyed and membrane permeability increases.

[8] = system: P. aeruginosa PAO1; assay: Bacterial motility on semisolid agar (migration distance)
Source text: It is believed that flagellar formation and flagellar motor rotation are driven by PMF. To study the effect of otilonium bromide on bacterial motility, P. aeruginosa, whose motility on a semisolid surface is dependent upon a functional flagellum, is reviewed. […] Gramicidin, an ionophore known for acting as PMF dissipater, is the positive control. […] For the experiments in FIG. 6a, P. aeruginosa is inoculated in the center of the semisolid agar containing otilonium bromide at the indicated concentrations, with gramicidin as the positive control. A set of 10 mM CaCl2 and no CaC2 plates are also prepared as indicated.
The migration distance is measured in cm and recorded after the inoculated plates ae incubated. The error bars represent the means and standard deviations (SDs). Statistical analysis is performed using unpaired two-tailed student t-test. .*, p<0.05, **, p<0.005, ***p<0.0005, ****p<0.00005.

`CCCCCCCCOc1ccccc1C(=O)Nc1ccc(C(=O)OCC[N+](C)(CC)CC)cc1.[Br-]` [Ob, Otilonium bromide] was tested, and the MIC ([1]; E. coli 5, colistin-resistant) was over 64 µg/mL, the MIC ([1]; E. coli 12.12.0487, colistin-resistant) was over 64 µg/mL and the MIC ([1]; E. coli 101, colistin-resistant) was over 64 µg/mL. It also gave an MIC ([1]; E. coli 119, colistin-resistant) of over 64 µg/mL, an MIC ([1]; E. coli 812, colistin-resistant) of over 64 µg/mL and an MIC ([1]; E. coli 2016.2.5 1149-1, colistin-resistant) of over 64 µg/mL. It also gave an MIC ([1]; E. coli 34650, colistin-resistant) of over 64 µg/mL, an MIC ([1]; E. coli CX48, colistin-resistant) of over 64 µg/mL and an MIC ([1]; E. coli CX53, colistin-resistant) of over 64 µg/mL. It also gave an MIC ([1]; E. coli CX116, colistin-resistant) of over 64 µg/mL, an MIC ([1]; E. coli WZ2431, colistin-resistant) of over 64 µg/mL and an MIC ([1]; E. coli WZ2909, colistin-resistant) of over 64 µg/mL. It also gave an MIC ([1]; E. coli WZ3903, colistin-resistant) of over 64 µg/mL, an MIC ([1]; E. coli WZ3906, colistin-resistant) of over 64 µg/mL and an MIC ([1]; E. coli WZ3920, colistin-resistant) of over 64 µg/mL. The MIC ([1]; E. coli WZ3951, colistin-resistant) was over 64 µg/mL, the MIC ([1]; E. coli WZ3955, colistin-resistant) was over 64 µg/mL and the MIC ([1]; E. coli X2169, colistin-resistant) was over 64 µg/mL. It also gave an MIC ([2]; ATCC17978, read-out: Ob MIC) of 20 µg/mL, an MIC ([2]; read-out: Ob MIC, A. baumannii ABJZ-45, colistin-resistant, Ob alone) of 20 µg/mL and an MIC ([2]; read-out: Ob MIC, A. baumannii ABJZ-46, colistin-resistant, Ob alone) of 20 µg/mL. For the same compound, the MIC ([2]; read-out: Ob MIC, A. baumannii ABJZ-50, colistin-resistant, Ob alone) was 20 µg/mL, the MIC [3] was over 64 µg/mL and the MIC [4] was over 64 µg/mL. For the same compound, the MIC ([5]; P. aeruginosa PA01, colistin-susceptible) was over 64 µg/mL, the MIC ([5]; P. aeruginosa PAER 2011-3010, colistin-susceptible) was over 64 µg/mL and the MIC ([5]; P. aeruginosa PAER 2011-3252, colistin-susceptible) was over 64 µg/mL. It also gave an MIC ([5]; P. aeruginosa PAER 2012-1527, colistin-susceptible) of over 64 µg/mL, an MIC ([5]; P. aeruginosa PAERC 10.296, colistin-susceptible) of over 64 µg/mL and an MIC ([5]; P. aeruginosa PAERC 11.2309, colistin-susceptible) of over 64 µg/mL. For the same compound, the MIC ([5]; P. aeruginosa PAERC 11.236, colistin-susceptible) was over 64 µg/mL, the MIC ([5]; P. aeruginosa PAERC 11.603, colistin-susceptible) was over 64 µg/mL and the MIC ([5]; P. aeruginosa PAERC 12.1478, colistin-susceptible) was over 64 µg/mL. For the same compound, the “live/dead state of cells” value [6] was “most or all mcr-1-bearing E. coli strains were alive”, the “SYTOX Green fluorescence (membrane permeability)” value ([7]; each drug individually) was “significant increase in fluorescence” and the “ability to enhance membrane permeability, compared with colistin” value ([7]; otilonium bromide by itself) was “significantly lower than colistin”. For the same compound, the “migration distance on semisolid agar” value ([8]; 40 μM otilonium bromide supplemented with 10 mM calcium ions) was “significant increase in migration distance” and the “migration distance on semisolid agar” value ([8]; plates containing otilonium bromide, overnight incubation) was “decrease in a dose-dependent manner”.
